The values below come from article PMC12747546, “Homoharringtonine suppresses acute myeloid leukemia progression by orchestrating EWSR1 phase separation in an m^6A‐YTHDF2‐dependent mechanism” (iMeta, 2025).

Holding throughout (experiment): microscale thermophoresis
Holding throughout (details): EWSR1-C mutant; read-out: binding constants

Experiment [1] concerns the target T1, EWSR1-C (GFP-EWSR1-C) (Homo sapiens, UniProt Q01844, I400A).
T1 construct: C-terminal region 301-656 (contains RNA recognition motif 353-453), GFP fusion, overexpressed in HEK293T, lysate
T1 sequence (Q01844 301-656 I400A): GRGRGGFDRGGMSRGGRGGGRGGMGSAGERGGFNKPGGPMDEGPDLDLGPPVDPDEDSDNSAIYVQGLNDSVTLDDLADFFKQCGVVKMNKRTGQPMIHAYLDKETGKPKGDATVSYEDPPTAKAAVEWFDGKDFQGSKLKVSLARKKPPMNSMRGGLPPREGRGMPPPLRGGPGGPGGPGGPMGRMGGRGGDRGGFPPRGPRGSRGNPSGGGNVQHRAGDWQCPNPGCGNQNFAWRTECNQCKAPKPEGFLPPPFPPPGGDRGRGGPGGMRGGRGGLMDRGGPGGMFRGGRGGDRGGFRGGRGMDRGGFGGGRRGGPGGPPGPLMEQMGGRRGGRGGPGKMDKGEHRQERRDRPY
As to the method: (§1) microscale thermophoresis on EWSR1-C (GFP-EWSR1-C) | The binding affinity of HHT to these EWSR1 mutants was assessed through MST

Experiment [2] concerns the target T2, EWSR1-C (GFP-EWSR1-C) (Homo sapiens, UniProt Q01844, T393A).
T2 construct: C-terminal region 301-656 (contains RNA recognition motif 353-453), GFP fusion, overexpressed in HEK293T, lysate
T2 sequence (Q01844 301-656 T393A): T1 sequence (Q01844 301-656 I400A) with T93A, A100I
As to the method: as §1

In experiment [3] the target is T3, EWSR1-C (GFP-EWSR1-C) (Homo sapiens, UniProt Q01844, M397A).
T3 construct: C-terminal region 301-656 (contains RNA recognition motif 353-453), GFP fusion, overexpressed in HEK293T, lysate
T3 sequence (Q01844 301-656 M397A): T1 sequence (Q01844 301-656 I400A) with M97A, A100I
The method, then:
as §1

Experiment [4] has as its target T4, EWSR1-C (GFP-EWSR1-C) (Homo sapiens, UniProt Q01844, P396A).
T4 construct: C-terminal region 301-656 (contains RNA recognition motif 353-453), GFP fusion, overexpressed in HEK293T, lysate
T4 sequence (Q01844 301-656 P396A): T1 sequence (Q01844 301-656 I400A) with P96A, A100I
The method, then: as §1

Each structure is given as a SMILES string. Residue numbers refer to the chain shown, from its start.

For the compound `COC(=O)C[C@](O)(CCCC(C)(C)O)C(=O)O[C@@H]1C(OC)=C[C@]23CCCN2CCc2cc4c(cc2[C@H]13)OCO4` [Homoharringtonine], the Kd at EWSR1-C (GFP-EWSR1-C) [1] was found to be 35.7 µM; at EWSR1-C (GFP-EWSR1-C) [2], 81 µM; on EWSR1-C (GFP-EWSR1-C) [3], 9.75 µM; at EWSR1-C (GFP-EWSR1-C) [4] it was 94.6 µM.
